Values quoted from earlier work, collected in US20090022794A1, “Topiramate Tablet Formulation” (priority 2005, published 2009).
Converted amounts (≈) assume the structure as drawn.

Key:
[1] = relative humidity as high as 90%

Row | Compound | moisture picked up [1] | solubility in alkaline solutions, acetone, dimethylsulfoxide and ethanol (alkaline solutions, acetone, dimethylsulfoxide, ethanol) | solubility in water (water) [mg/mL]
1 | OC[C@@H](O)[C@@H](O)[C@H](O)[C@H](O)CO [Mannitol] | less than 1% | – | –
2 | CC1(C)O[C@@H]2[C@@H](CO[C@@]3(COS(N)(=O)=O)OC(C)(C)O[C@@H]23)O1 [Topiramate, 2,3:4,5-Bis-O-(1-methylethylidene)-β-D-fructopyranose sulfamate] | – | soluble | 9.8 (≈ 28.9 mM)
